Experimental findings from patent US10501452B2, “Lactam compound derivative and application thereof” (NHWA PHARMA. CORPORATION, priority 2015, dated 2019) are described below.

One data set deals with 5-HT1A (Rattus norvegicus (Rat), UniProt P19327). The data set can be described thus: 5-HT1A receptor binding assay (3H-8-OH-DPAT). Particulars: rat cortex membrane, 3H-8-OH-DPAT. As to the method: Rats were decapitated. […] Incubation at 37° C. was conducted for 10 min. […] Centrifugation was conducted and repeated 3 times.
Chain of 5-HT1A (P19327 whole entry): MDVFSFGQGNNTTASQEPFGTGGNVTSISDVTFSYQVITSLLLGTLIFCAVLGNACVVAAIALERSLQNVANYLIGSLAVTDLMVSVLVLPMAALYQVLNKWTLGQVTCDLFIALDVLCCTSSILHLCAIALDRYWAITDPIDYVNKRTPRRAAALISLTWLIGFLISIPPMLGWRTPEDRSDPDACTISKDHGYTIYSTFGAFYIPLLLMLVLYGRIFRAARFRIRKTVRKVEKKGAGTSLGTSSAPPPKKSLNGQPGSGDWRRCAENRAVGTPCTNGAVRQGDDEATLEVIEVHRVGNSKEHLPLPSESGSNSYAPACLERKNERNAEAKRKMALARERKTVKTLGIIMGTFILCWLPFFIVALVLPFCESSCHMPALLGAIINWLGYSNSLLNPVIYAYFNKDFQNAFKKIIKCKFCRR
(§1) Materials for the Receptor Binding Assay

The target of another data set is 5-HT7 receptor (Rattus norvegicus (Rat), UniProt P32305). Kind of data set: 5-HT7 receptor binding assay ([3H]-5-CT). The note with it: rat hypothalamus membrane, [3H]-5-CT. The procedure:
Adult SD rats were decapitated. […] Centrifugation was conducted (repeated 3 times).
as §1

A further data set addresses Histamine H1 receptor (Cavia porcellus (Guinea pig), UniProt P31389). The data set can be described thus: Histamine H1 receptor binding assay (3H-pyrilamine). The note with it: guinea pig cerebellum membrane, 3H-pyrilamine. As to the method:
Preparation of Histamine H1 Receptor Membrane
Guinea pigs were decapitated. […] Vortex mixer was used for blending. Centrifugation was conducted at 48000 g, 4° C. for 10 min. The supernatant was discarded to give pellets, and buffer was added again for washing. Centrifugation was conducted and repeated 3 times.
as §1
(2) 100 μL of membrane preparation was added into each reaction tube.

The test system of data set [1] is MK-801 induced high activity in mice. The data set can be described thus: MK-801 induced high activity. The format is in vivo. The note with it: for ED50: Mus musculus, po. As to the method: Ascorbic acid was provided by Sinopharm Chemical Reagent Co. Ltd.
Subsequently, the spontaneous activities of the mice of each group in 90 min were measured.

Data set [2] deals with Apomorphine induced clambering in mice. Kind of data set: Apomorphine induced clambering assay of mice. The format is in vivo. The note with it: mice; for ED50: Mus musculus, po, read-out: Apomorphine induced clambering (ED50, po, mg/kg). The procedure:
Healthy KM mice, male, with body weight of 18-22 g, were provided by Qinglongshan Animal Cultivation Center, Nanjing.
Apomorphine provided by Sigma Company was dissolved in 0.9% NaCl (containing 0.1% vitamin C) before use, and was freshly formulated before use.
Vitamin C, F20061113, was provided by Sinopharm Chemical Reagent Co. Ltd.
Instruments: self-made clambering cage, chronograph.
Procedures: apomorphine induced clambering assay of mice
After 5 min of adaptation, the behavior of the mice at 10-11, 20-21, and 30-31 min after the injection of apomorphine were observed and scored.

The test system of data set [3] is conditioned avoidance response in rats. Kind of data set: animal or person. In kind it is in vivo, rat. The note with it: rat. The procedure:
[…] of SD rats, male.
Firstly, training the rats with shuttle box:
(1) The rats were allowed for adaption for five minutes;
(2) Conditioned stimulus (CS, light and noise) were started and lasted for 20 s, and at the tenth second, unconditioned stimulus (US, 1.5 mA electric shock) was performed and lasted for 10 s;
(3) Training was conducted 30 times per day for 9 days. The interval between two trainings was set randomly ranged from 20 to 30 s;
(4) Observation indicators:
The animal ran to another compartment during the conditioning stimulus was recorded as “avoidance”;
Animals ran to another compartment during the electric shock was recorded as “escape”;
Grouping of the qualified rats: the qualified rats were divided into negative control group, positive drug groups of each dosage, and compound groups of each dosage according to the principle of randomization, 8 in each group.
Administration Method: Corresponding solvent was administered intragastrically to the negative control group; corresponding dosages of positive drugs were administered intragastrically to the positive drug groups of each dosage; and corresponding dosages of compounds were administered intragastrically to the compound groups of each dosage.
CAR Assay: A CAR assay was performed 1 hour after intragastric administration. The method was the same as the CAR training. The observation indicators were the number of avoidances, the number of escapes, and the number of escape failures.
Statistical Data Processing: Assay data are presented as mean±standard deviation (Mean±SD), the comparison was performed by a combination of one-way ANOVA with post-hoc LSD. The ED50 was calculated using the probit method.

A further data set can be described thus: Catalepsy assay. The note with it: both, Kunming, mouse, in vivo, po. The procedure:
(§2) The durations of the mice to maintain the posture with the two forepaws on the bars were recorded, and 30 s of spasticity without moving was considered as the positive response. In the case the forepaws of the mice were not put down persistently, the observation was terminated at 60 s. The numbers of animals with positive response in each of the compound dosage groups were counted.

The next data set deals with catalepsy in mice. Kind of data set: Catalepsy assay. Particulars: for Catalepsy/Apomorphine induced clambering / Catalepsy/MK-801 induced high activity: mice, ratio of ED50 values. The procedure:
as §2

The nature of data set [4]: Acute toxicity study (mice). The note with it: both sexes, KM, mouse, in vivo, po, intragastric. In kind it is in vivo. The procedure: (§3) Example 41: Acute Toxicity Study
(§4) Limit test of sequential assay: KM rats or mice (half male and half female) were randomly divided into several groups (with 2-5 mice in each group), which were respectively the 2000 mg/kg groups for each compound, and the solvent group. 0.2 ml/10 g were administered intragastrically. The deaths of the animals in 3 days were observed. In the case 3 or more animals survived in 3 days without notable abnormity in their life states, the observation was continued until the assay was completed in 7 days. In the case 3 or more animals died in 3 days, the method of median lethal dose was used to determine the LD50.
Pre-assay for the method of the median lethal dose: KM mice (half male and half female) were randomly divided into several groups (with 4 mice in each group), which were respectively the 500 mg/kg, 200 mg/kg, 50 mg/kg groups for each compound, and the solvent group. 0.2 ml/10 g were administered intragastrically, and the deaths of the animals in 1-3 days were observed.
(§5) Results: The compound of the invention has relatively low acute toxicity.

Data set [5] in a line: Acute toxicity study (rats). The note with it: both sexes, KM, in vivo, po, 2000 mg/kg; rat, intragastric. The procedure: as §3, §4, §5
A further data set has as its target D2 (Rattus norvegicus (Rat), UniProt P61169). Kind of data set: D2 receptor binding assay (3H-Spiperone).
The target of the next data set is 5-HT2A (Rattus norvegicus (Rat), UniProt P14842). Kind of data set: 5-HT2A receptor binding assay ([3H]-Ketanserin).
Chain of 5-HT2A (P14842 whole entry): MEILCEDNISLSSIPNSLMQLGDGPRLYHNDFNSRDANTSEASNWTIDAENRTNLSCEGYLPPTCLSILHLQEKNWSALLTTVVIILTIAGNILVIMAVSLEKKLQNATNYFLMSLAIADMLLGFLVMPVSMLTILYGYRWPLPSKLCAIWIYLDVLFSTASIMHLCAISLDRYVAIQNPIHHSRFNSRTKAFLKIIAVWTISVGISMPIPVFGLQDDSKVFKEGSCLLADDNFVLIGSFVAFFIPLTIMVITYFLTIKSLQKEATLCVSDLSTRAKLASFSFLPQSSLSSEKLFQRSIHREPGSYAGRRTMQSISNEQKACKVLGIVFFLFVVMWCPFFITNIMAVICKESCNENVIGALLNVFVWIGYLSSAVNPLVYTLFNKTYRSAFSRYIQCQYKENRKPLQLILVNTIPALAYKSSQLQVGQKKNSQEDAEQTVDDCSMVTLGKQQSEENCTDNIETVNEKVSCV
The mark [6] stands for this setting: read-out: Ki (nM) D2, rat striatum membrane, 3H-Spiperone.
The mark [7] stands for this setting: read-out: Ki (nM) 5-HT2A, rat cortex membrane, [3H]-Ketanserin.

Like-named read-outs stand apart in the source and are kept apart here.

Chain of 5-HT7 receptor (P32305 whole entry): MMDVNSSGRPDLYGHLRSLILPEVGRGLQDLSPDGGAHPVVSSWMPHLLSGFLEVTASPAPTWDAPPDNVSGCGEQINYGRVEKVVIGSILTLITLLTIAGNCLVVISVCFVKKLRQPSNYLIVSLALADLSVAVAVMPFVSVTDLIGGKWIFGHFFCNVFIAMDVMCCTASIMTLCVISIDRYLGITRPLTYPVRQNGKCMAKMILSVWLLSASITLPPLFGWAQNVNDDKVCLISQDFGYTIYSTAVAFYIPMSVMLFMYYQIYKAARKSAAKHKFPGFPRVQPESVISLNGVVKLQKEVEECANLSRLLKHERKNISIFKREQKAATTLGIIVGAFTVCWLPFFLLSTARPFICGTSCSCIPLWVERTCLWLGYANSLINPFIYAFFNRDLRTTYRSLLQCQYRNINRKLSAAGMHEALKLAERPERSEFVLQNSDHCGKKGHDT
Chain of D2 (P61169 whole entry): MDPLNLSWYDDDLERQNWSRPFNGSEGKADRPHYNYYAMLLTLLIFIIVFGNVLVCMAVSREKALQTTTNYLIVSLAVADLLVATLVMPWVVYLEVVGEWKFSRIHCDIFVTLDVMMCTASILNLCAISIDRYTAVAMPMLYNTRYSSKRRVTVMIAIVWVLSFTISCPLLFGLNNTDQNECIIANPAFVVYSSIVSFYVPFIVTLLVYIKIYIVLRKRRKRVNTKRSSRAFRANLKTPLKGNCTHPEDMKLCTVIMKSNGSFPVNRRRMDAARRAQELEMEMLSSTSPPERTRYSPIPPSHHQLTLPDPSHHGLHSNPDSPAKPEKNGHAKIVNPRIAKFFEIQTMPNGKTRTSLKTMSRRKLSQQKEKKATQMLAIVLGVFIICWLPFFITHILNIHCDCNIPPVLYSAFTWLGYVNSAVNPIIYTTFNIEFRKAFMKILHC
Chain of Histamine H1 receptor (P31389 whole entry): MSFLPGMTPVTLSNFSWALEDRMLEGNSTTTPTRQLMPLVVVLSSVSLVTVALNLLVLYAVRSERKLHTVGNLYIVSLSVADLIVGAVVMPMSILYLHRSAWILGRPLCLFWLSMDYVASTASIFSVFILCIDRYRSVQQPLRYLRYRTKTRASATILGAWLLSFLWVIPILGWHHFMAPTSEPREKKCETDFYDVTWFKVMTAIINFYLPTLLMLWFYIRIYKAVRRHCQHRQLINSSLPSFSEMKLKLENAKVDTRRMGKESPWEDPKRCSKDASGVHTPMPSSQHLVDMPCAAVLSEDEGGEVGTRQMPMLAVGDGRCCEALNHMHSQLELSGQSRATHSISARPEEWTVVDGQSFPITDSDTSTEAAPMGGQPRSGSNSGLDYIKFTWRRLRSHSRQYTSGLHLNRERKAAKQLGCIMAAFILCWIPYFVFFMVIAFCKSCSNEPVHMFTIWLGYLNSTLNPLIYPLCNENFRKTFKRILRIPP
Procedure for 5-HT2A: Rats were decapitated. Cortex of brain was rapidly taken on ice, and 3 ml of buffer (0.05 M Tris-HCl buffer: 6.05 g of Tris was dissolved in 1000 ml of double-distilled water, and concentrated HCl was used to adjust to pH 7.5) was added, homogenization was conducted, and then 5 ml of buffer was added. Incubation was conducted at 37° C. for 10 min, the weight of the tubes were adjusted using a balance after incubation. Centrifugation was conducted at 12000 rpm, 4° C. for 20 min, the supernatant was discarded, and 3 ml of buffer was added. Vortex mixer was used for blending, and then 5 ml of buffer was added. Centrifugation was conducted (repeated 3 times). After the centrifugation, the supernatant was discarded, and the pellets were stored at −80° C. for future use.
(1) The prepared membrane was applied with buffer, and homogenizer was used for evenly dispersing. 15 tubes were mixed into a 100 ml container, and appropriate amount of buffer was added to give 50 ml of membrane suspension, which was reserved for future use.
(§6) (2) 100 μL of membrane preparation and 100 μL of buffer were added into each reaction tube.
(3) 100 μL of buffer was added into the total binding tube (TB), 100 μL of Methysergide (final concentration 10^−5M) was added into the nonspecific binding tube (NB), 100 μL of the test compound (final concentration 10^−5M) was added into the specific binding tube (SB) of each test compound.
(5) Each of the reaction tubes was incubated at 37° C. for 15 min. After the reaction was completed, the bound ligands were rapidly filtered under reduced pressure, and sufficiently washed with ice-chilled assay buffer. The filter was taken out and put into a 3 ml scintillation vial, and 2 ml of toluene scintillation cocktail was added and blended.
(6) The scintillation vial were put into Liquid Scintillation Counter for counting. Inhibition rate(I%)=(Total binding tube cpm−compound cpm)/(Total binding tube cpm−nonspecific binding tube cpm)×100%
Procedure for D2: Rats were decapitated. Striatum of brain was rapidly taken on ice, 3 ml of buffer (0.05 M Tris-HCl buffer, containing NaCl 120 mM, KCl 5 mM, MgCl2 1 mM, CaCl2 1 mM) was added, homogenization was conducted, and then 5 ml of buffer was then added. The weight of the homogenized tubes were adjusted using a balance, and centrifugation was conducted. The supernatant was discarded, and 3 ml of buffer was added. Vortex mixer was used for blending, and then 5 ml of buffer was added. Centrifugation was conducted and repeated 3 times. The supernatant was discarded after centrifugation was completed, and the pellets were stored at −80° C. for future use.
Beckman LS-6500 Multi-function Liquid Scintillation Counter was used.
(1) The prepared membrane was applied with appropriate amount of buffer, and homogenizer was used for evenly dispersing. 15 tubes were mixed into a 100 ml container, and appropriate amount of buffer was added to give 50 ml of membrane suspension, which was reserved for future use.
as §6
(3) 100 μL of buffer was added into the total binding tube (TB), 100 μL of Butaclamol (final concentration 10^−5M) was added into the nonspecific binding tube (NB), 100 μL of the test compound (final concentration 10^−5M) was added into the specific binding tube (SB) of each test compound.
(5) Each of the reaction tubes was incubated at 37° C. for 20 min. After the reaction was completed, the bound ligands were rapidly filtered under reduced pressure, and sufficiently washed with ice-chilled assay buffer. The filter was taken out and put into a 3 ml scintillation vial, and 2 ml of toluene scintillation cocktail was added and blended.
(6) The scintillation vials were put into Liquid Scintillation Counter for counting. Inhibition rate(I%)=(Total binding tube cpm−compound cpm)/(Total binding tube cpm−nonspecific binding tube cpm)×100%
Each assay for the compounds was conducted in duplicate for two individual tests.

Usually Ki stands for a dissociation constant, usually derived from enzyme kinetics or from competition with a known ligand. The term LD50 denotes the dose expected to kill half of the subjects tested. Read a high LD50 as a less toxic substance. Take `CN1CCc2ccc(OCCCN3CCN(c4nsc5ccccc45)CC3)cc2C1=O` [Compound 14, 7-(3-(4-(benzo[d]isothiazol-3-yl)piperazin-1-yl)propoxy)-2-methyl-3,4-dihydroisoquinolin-1(2H)-one]: the Ki at 5-HT1A stood at 8.8 nM; on 5-HT7 receptor, 16.8 nM; at Histamine H1 receptor, 1360 nM; on D2 (setting [6]), 6.9 nM; on 5-HT2A (setting [7]) it was 7.2 nM. In addition, the ED50 in [1] turned out to be 0.07 mg/kg; in data set [2], 0.06 mg/kg; in data set [3] (po, intragastric, 1 hour after administration, read-out: Rat CAR ED50), 0.65 mg/kg; in “Catalepsy assay” it was 32 mg/kg. In addition, the “improvement of MK-801 induced high activity (in words)” value in data set [1] (compared with risperidone) is on record as “significantly improve”. Further, the “improvement of apomorphine induced clambering symptoms (in words)” value in [2] (compared with risperidone) is on record as “effectively improve”. Also, in [3] (LD50 versus CAR ED50), the Therapeutic index amounted to 238. In data set [3] (compared with risperidone), the “performance in the rat CAR model (in words)” value is reported as “markedly better than risperidone”. For the same molecule, the Catalepsy/Apomorphine induced clambering in the data set with catalepsy in mice was found to be 533. Besides, the “Catalepsy/MK-801 induced high activity” value with catalepsy in mice worked out at 457. Also, in the data set on catalepsy in mice (mouse, in vivo), the “EPS in effective dosage (in words)” value is given as “do not cause EPS”. For the same molecule, in data set [4], the LD50 worked out at 202 mg/kg. The molecule also returned an LD50 at 3 days in data set [5] of 155 mg/kg.
Turning to `O=C(CCCN1CCC(O)(c2ccc(Cl)cc2)CC1)c1ccc(F)cc1` [haloperidol, reference compound], the values for the ED50 (in data set [1]; in data set [2]; in “Catalepsy assay”) were 0.1 mg/kg, 0.08 mg/kg and 0.44 mg/kg, respectively. Further, the Catalepsy/Apomorphine induced clambering in the data set on catalepsy in mice is reported as 4.89. The “Catalepsy/MK-801 induced high activity” value in the data set on catalepsy in mice amounted to 4.40.
The like results for `CN1CCN(C2=Nc3cc(Cl)ccc3Nc3ccccc32)CC1` [clozapine, reference compound] were, in that order, 2.28 mg/kg, 17.9 mg/kg, more than 50 mg/kg, more than 5.58 and more than 21.93.
For the molecule `Cc1nc2ccc(OCCCN3CCN(c4cccc(C(F)(F)F)c4)CC3)cc2c(=O)n1C` [Compound 31, 2,3-dimethyl-6-(3-(4-(3-(trifluoromethyl)phenyl)piperazin-1-yl)propoxy)quinazolin-4(3H)-one], the Ki at 5-HT1A is 19 nM; at 5-HT7 receptor it was 8.3 nM; on Histamine H1 receptor, more than 2000 nM; at D2 (setting [6]) it was 21.8 nM; at 5-HT2A (setting [7]) it was 9.8 nM.
For `CN1CCc2c(F)cc(OCCCN3CCC(c4noc5cc(F)ccc45)CC3)cc2C1=O` [Compound 9, 5-fluoro-7-(3-(4-(6-fluorobenzo[d]isoxazol-3-yl)piperidin-1-yl)propoxy)-2-methyl-3,4-dihydroisoquinolin-1(2H)-one], in that order: 3.9 nM, 7.9 nM, more than 2000 nM, 3.1 nM and 3.7 nM.
Regarding `Cc1cc(OCCCN2CCC(c3noc4cc(F)ccc34)CC2)cc2c1CCN(C)C2=O` [Compound 8, 7-(3-(4-(6-fluorobenzo[d]isoxazol-3-yl)piperidin-1-yl)propoxy)-2,5-dimethyl-3,4-dihydroisoquinolin-1(2H)-one], the Ki is 2.8 nM at 5-HT1A; 6.7 nM at 5-HT7 receptor; more than 2000 nM on Histamine H1 receptor; 8.7 nM on D2 (setting [6]); 2.4 nM at 5-HT2A (setting [7]).
As to `Cn1cnc2ccc(OCCCCN3CCN(c4cccc(C(F)(F)F)c4)CC3)cc2c1=O` [Compound 28, 3-methyl-6-(4-(4-(3-(trifluoromethyl)phenyl)piperazin-1-yl)butoxy)quinazolin-4(3H)-one], the inhibition constant (Ki) on 5-HT1A is 12.2 nM; on 5-HT7 receptor, 7.4 nM; on Histamine H1 receptor it was more than 2000 nM; on D2 (setting [6]) it was 24.8 nM; on 5-HT2A (setting [7]) it was 5.8 nM.
The like results for `CCN1CCc2ccc(OCCCN3CCC(c4noc5cc(F)ccc45)CC3)cc2C1=O` [Compound 7, 7-(3-(4-(6-fluorobenzo[d]isoxazol-3-yl)piperidin-1-yl)propoxy)-2-ethyl-3,4-dihydroisoquinolin-1(2H)-one] were, in that order, 1.9 nM, 12.7 nM, more than 2000 nM, 13.1 nM and 0.9 nM.
With `CC1CN(C)C(=O)c2cc(OCCCN3CCC(c4noc5cc(F)ccc45)CC3)ccc21` (stereo not shown) [Compound 10, 7-(3-(4-(6-fluorobenzo[d]isoxazol-3-yl)piperidin-1-yl)propoxy)-2,4-dimethyl-3,4-dihydroisoquinolin-1(2H)-one], the Ki on 5-HT1A is 4.6 nM; on 5-HT7 receptor, 8.4 nM; on Histamine H1 receptor, more than 2000 nM; on D2 (setting [6]), 5.8 nM; at 5-HT2A (setting [7]) it was 12.9 nM.
The like results for `O=C1NCCc2ccc(OCCCN3CCN(c4cccc(Cl)c4Cl)CC3)cc21` [A, reference compound] were, in that order, 14.3 nM, 254 nM, 89.6 nM, 21.2 nM and 29.2 nM.
For `CN1COc2ccc(OCCCN3CCC(c4noc5cc(F)ccc45)CC3)cc2C1=O` [Compound 11, 6-(3-(4-(6-fluorobenzo[d]isoxazol-3-yl)piperidin-1-yl)propoxy)-3-methyl-2H-benzo[e][1,3]oxazin-4(3H)-one], the Ki on 5-HT1A was 24.6 nM; on 5-HT7 receptor, 11.2 nM; on Histamine H1 receptor it was more than 2000 nM; at D2 (setting [6]), 13.9 nM; at 5-HT2A (setting [7]) it was 3.6 nM.
As to `CN1CCc2ccc(OCCCN3CCC(C(=O)c4ccc(F)cc4)CC3)cc2C1=O` [Compound 25, 7-(3-(4-(4-fluorobenzoyl)piperidin-1-yl)propoxy)-2-methyl-3,4-dihydroisoquinolin-1(2H)-one], the Ki was 17.6 nM at 5-HT1A; 10.8 nM at 5-HT7 receptor; more than 2000 nM at Histamine H1 receptor; 32.8 nM at D2 (setting [6]); 21.7 nM on 5-HT2A (setting [7]).
For `O=C1CCc2ccc(OCCCCN3CCC(c4noc5cc(F)ccc45)CC3)cc2N1` [E, reference compound], the Ki on 5-HT1A turned out to be 23.2 nM; on 5-HT7 receptor, 35.6 nM; at Histamine H1 receptor, 178 nM; on D2 it was 5.6 nM; at 5-HT2A, 12.7 nM.
In data set [5], `Cc1nc2n(c(=O)c1CCN1CCC(c3noc4cc(F)ccc34)CC1)CCCC2` [risperidone, reference compound] registered an LD50 at 3 days of 113 mg/kg.
